Test results reported in publication PMC8185074, “Anchor extension: a structure-guided approach to design cyclic peptides targeting enzyme active sites” (Nature Communications, 2021).
Peptide text beside a SMILES is read from it.

Tests used:
Type in all cases: biochemical
HDAC3 = biological target: T1, HDAC3 (Homo sapiens, UniProt O15379); assay: HDAC3 inhibition, full IC50 measurement (Reaction Biology; fluorogenic p53 peptide RHKK(Ac)AMC)
T1 construct: purchased Reaction Biology Corporation (assay run by the CRO)
T1 sequence (O15379 whole entry): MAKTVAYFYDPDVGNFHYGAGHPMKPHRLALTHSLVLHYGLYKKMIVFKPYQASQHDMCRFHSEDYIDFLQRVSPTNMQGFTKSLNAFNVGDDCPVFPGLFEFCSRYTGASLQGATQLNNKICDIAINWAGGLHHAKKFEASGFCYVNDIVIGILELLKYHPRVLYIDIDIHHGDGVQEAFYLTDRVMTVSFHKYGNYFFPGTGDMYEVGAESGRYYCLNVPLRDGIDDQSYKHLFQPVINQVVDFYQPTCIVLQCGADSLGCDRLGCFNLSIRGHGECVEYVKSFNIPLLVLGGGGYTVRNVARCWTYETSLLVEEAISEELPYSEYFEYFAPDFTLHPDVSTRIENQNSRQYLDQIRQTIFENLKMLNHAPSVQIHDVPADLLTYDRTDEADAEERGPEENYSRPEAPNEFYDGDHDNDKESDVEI
T1 sequence (Q9Y618 395-489 partner limits assumed): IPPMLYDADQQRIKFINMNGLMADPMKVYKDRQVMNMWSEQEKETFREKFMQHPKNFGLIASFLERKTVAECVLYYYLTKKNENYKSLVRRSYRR
Method in brief: (§1)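 Reaction: enzyme plus acoustically dispensed peptide inhibitor, 50 μM RHKK(Ac)AMC substrate, pH 8.0 Tris buffer with BSA and 1% DMSO, 1 h, 30 °C. Duplicates averaged.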

HDAC6 = biological target: T2, HDAC6 (Homo sapiens, UniProt Q9UBN7); assay: HDAC6 inhibition, full IC50 measurement (Reaction Biology; fluorogenic p53 peptide RHKK(Ac)AMC)
T2 construct: purchased Reaction Biology Corporation (assay run by the CRO)
T2 sequence (Q9UBN7 1-1215): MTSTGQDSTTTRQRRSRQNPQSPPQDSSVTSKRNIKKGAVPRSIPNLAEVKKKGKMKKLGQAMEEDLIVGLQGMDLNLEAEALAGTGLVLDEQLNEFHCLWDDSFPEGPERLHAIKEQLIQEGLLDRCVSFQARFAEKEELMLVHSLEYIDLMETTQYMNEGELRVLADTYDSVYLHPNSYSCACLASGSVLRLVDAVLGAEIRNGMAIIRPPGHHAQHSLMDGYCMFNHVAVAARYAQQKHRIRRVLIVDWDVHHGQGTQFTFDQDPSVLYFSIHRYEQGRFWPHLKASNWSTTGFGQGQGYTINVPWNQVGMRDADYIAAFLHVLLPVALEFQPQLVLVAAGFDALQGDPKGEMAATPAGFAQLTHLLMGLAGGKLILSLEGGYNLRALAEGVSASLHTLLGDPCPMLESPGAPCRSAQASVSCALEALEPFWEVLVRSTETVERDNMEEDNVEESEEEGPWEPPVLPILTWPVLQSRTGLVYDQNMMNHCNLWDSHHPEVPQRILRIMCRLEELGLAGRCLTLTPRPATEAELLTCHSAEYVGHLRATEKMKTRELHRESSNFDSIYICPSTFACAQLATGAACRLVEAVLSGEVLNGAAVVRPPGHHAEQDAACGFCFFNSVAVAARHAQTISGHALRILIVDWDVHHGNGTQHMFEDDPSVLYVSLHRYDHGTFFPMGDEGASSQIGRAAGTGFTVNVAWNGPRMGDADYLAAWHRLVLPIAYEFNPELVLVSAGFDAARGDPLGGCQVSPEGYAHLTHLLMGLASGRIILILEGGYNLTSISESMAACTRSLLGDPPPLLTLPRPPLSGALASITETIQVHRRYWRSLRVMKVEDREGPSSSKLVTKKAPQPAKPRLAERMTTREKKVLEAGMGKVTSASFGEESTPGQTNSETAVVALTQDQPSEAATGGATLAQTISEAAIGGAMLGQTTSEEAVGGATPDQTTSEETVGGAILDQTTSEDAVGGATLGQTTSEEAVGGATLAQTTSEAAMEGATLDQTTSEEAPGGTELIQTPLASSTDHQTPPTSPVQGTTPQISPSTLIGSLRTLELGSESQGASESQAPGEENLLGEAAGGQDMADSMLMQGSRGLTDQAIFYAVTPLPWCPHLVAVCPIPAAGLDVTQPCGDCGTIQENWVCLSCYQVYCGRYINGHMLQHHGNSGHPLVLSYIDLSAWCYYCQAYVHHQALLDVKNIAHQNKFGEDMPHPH
Method in brief: as §1

HDAC1 = biological target: T3, HDAC1 (Homo sapiens, UniProt Q13547); assay: HDAC1 inhibition, full IC50 measurement (Reaction Biology; fluorogenic p53 peptide RHKK(Ac)AMC); settings: t1/t2 replicates
T3 construct: purchased Reaction Biology Corporation (assay run by the CRO)
T3 sequence (Q13547 whole entry): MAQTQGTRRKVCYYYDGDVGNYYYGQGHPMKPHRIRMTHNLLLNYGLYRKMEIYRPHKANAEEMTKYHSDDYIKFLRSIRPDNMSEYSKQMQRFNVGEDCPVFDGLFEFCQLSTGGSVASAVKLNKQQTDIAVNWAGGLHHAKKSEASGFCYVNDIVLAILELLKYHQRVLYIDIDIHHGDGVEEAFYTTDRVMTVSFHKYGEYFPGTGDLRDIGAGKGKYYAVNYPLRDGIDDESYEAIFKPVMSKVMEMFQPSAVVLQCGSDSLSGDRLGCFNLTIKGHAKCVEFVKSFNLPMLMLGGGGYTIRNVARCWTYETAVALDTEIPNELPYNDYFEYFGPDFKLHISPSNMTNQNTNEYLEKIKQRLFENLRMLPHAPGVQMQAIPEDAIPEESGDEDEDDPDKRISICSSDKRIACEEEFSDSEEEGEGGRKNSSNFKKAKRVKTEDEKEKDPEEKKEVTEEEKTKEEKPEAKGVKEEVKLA
Method in brief: as §1

CC(C)C[C@H]1NC(=O)[C@H](Cc2c[nH]c3ccccc23)NC(=O)[C@H](CCCCCS)NC(=O)[C@@H](Cc2ccc(O)cc2)NC(=O)[C@@H](C(C)C)NC(=O)[C@H](Cc2c[nH]cn2)NC(=O)CNC(=O)CNC(=O)[C@@H](CO)NC1=O [des2.2.0, SHA-Trp-dLeu-dSer-Gly-Gly-His-dVal-dTyr] (HELM PEPTIDE1{G.G.H.[dV].[dY].[O=C([C@H](CCCCCS)N[*:1])[*:2]].W.[dL].[dS]}$PEPTIDE1,PEPTIDE1,1:R1-9:R2$$$V2.0)
HDAC3 activity raw data (signal) (HDAC3; Conc. 1.00E-05 M, t1): 556301
HDAC3 activity raw data (signal) (HDAC3; Conc. 1.00E-05 M, t2): 606764
HDAC3 activity raw data (signal) (HDAC3; Conc. 1.11E-06 M, t1): 913376
HDAC3 activity raw data (signal) (HDAC3; Conc. 1.11E-06 M, t2): 1016072
HDAC3 activity raw data (signal) (HDAC3; Conc. 1.23E-07 M, t1): 993017
HDAC3 activity raw data (signal) (HDAC3; Conc. 1.23E-07 M, t2): 1391457
HDAC3 activity raw data (signal) (HDAC3; Conc. 1.37E-08 M, t1): 1020645
HDAC3 activity raw data (signal) (HDAC3; Conc. 1.37E-08 M, t2): 1085089
HDAC3 activity raw data (signal) (HDAC3; Conc. 1.52E-09 M, t1): 1012899
HDAC3 activity raw data (signal) (HDAC3; Conc. 1.52E-09 M, t2): 1059045
HDAC3 activity raw data (signal) (HDAC3; Conc. 3.33E-06 M, t1): 841514
HDAC3 activity raw data (signal) (HDAC3; Conc. 3.33E-06 M, t2): 795799
HDAC3 activity raw data (signal) (HDAC3; Conc. 3.70E-07 M, t1): 980314
HDAC3 activity raw data (signal) (HDAC3; Conc. 3.70E-07 M, t2): 1161998
HDAC3 activity raw data (signal) (HDAC3; Conc. 4.12E-08 M, t1): 1033280
HDAC3 activity raw data (signal) (HDAC3; Conc. 4.12E-08 M, t2): 1094012
HDAC3 activity raw data (signal) (HDAC3; Conc. 4.57E-09 M, t1): 1032533
HDAC3 activity raw data (signal) (HDAC3; Conc. 4.57E-09 M, t2): 1050723
HDAC3 activity raw data (signal) (HDAC3; Conc. 5.08E-10 M, t1): 965053
HDAC3 activity raw data (signal) (HDAC3; Conc. 5.08E-10 M, t2): 1022182
HDAC6 activity raw data (signal) (HDAC6; Conc. 1.00E-05 M, t1): 16305
HDAC6 activity raw data (signal) (HDAC6; Conc. 1.00E-05 M, t2): 24452
HDAC6 activity raw data (signal) (HDAC6; Conc. 1.11E-06 M, t1): 83235
HDAC6 activity raw data (signal) (HDAC6; Conc. 1.11E-06 M, t2): 80880
HDAC6 activity raw data (signal) (HDAC6; Conc. 1.23E-07 M, t1): 144589
HDAC6 activity raw data (signal) (HDAC6; Conc. 1.23E-07 M, t2): 161069
HDAC6 activity raw data (signal) (HDAC6; Conc. 1.37E-08 M, t1): 141422
HDAC6 activity raw data (signal) (HDAC6; Conc. 1.37E-08 M, t2): 164330
HDAC6 activity raw data (signal) (HDAC6; Conc. 1.52E-09 M, t1): 132716
HDAC6 activity raw data (signal) (HDAC6; Conc. 1.52E-09 M, t2): 164682
HDAC6 activity raw data (signal) (HDAC6; Conc. 3.33E-06 M, t1): 43855
HDAC6 activity raw data (signal) (HDAC6; Conc. 3.33E-06 M, t2): 31435
HDAC6 activity raw data (signal) (HDAC6; Conc. 3.70E-07 M, t1): 128192
HDAC6 activity raw data (signal) (HDAC6; Conc. 3.70E-07 M, t2): 121991
HDAC6 activity raw data (signal) (HDAC6; Conc. 4.12E-08 M, t1): 140481
HDAC6 activity raw data (signal) (HDAC6; Conc. 4.12E-08 M, t2): 177888
HDAC6 activity raw data (signal) (HDAC6; Conc. 4.57E-09 M, t1): 138901
HDAC6 activity raw data (signal) (HDAC6; Conc. 4.57E-09 M, t2): 160834
HDAC6 activity raw data (signal) (HDAC6; Conc. 5.08E-10 M, t1): 128639
HDAC6 activity raw data (signal) (HDAC6; Conc. 5.08E-10 M, t2): 162548
HDAC1 activity raw data (signal) (HDAC1; peptide conc. 1.00E-05 M, listed as des2.2.0_t1): 393754
HDAC1 activity raw data (signal) (HDAC1; peptide conc. 1.00E-05 M, listed as des2.2.0_t2): 398456
HDAC1 activity raw data (signal) (HDAC1; peptide conc. 1.11E-06 M, listed as des2.2.0_t1): 771529
HDAC1 activity raw data (signal) (HDAC1; peptide conc. 1.11E-06 M, listed as des2.2.0_t2): 714587
HDAC1 activity raw data (signal) (HDAC1; peptide conc. 1.23E-07 M, listed as des2.2.0_t1): 815475
HDAC1 activity raw data (signal) (HDAC1; peptide conc. 1.23E-07 M, listed as des2.2.0_t2): 811874
HDAC1 activity raw data (signal) (HDAC1; peptide conc. 1.37E-08 M, listed as des2.2.0_t1): 879707
HDAC1 activity raw data (signal) (HDAC1; peptide conc. 1.37E-08 M, listed as des2.2.0_t2): 762845
HDAC1 activity raw data (signal) (HDAC1; peptide conc. 1.52E-09 M, listed as des2.2.0_t1): 835131
HDAC1 activity raw data (signal) (HDAC1; peptide conc. 1.52E-09 M, listed as des2.2.0_t2): 788807
HDAC1 activity raw data (signal) (HDAC1; peptide conc. 3.33E-06 M, listed as des2.2.0_t1): 631956
HDAC1 activity raw data (signal) (HDAC1; peptide conc. 3.33E-06 M, listed as des2.2.0_t2): 567009
HDAC1 activity raw data (signal) (HDAC1; peptide conc. 3.70E-07 M, listed as des2.2.0_t1): 777508
HDAC1 activity raw data (signal) (HDAC1; peptide conc. 3.70E-07 M, listed as des2.2.0_t2): 771678
HDAC1 activity raw data (signal) (HDAC1; peptide conc. 4.12E-08 M, listed as des2.2.0_t1): 776525
HDAC1 activity raw data (signal) (HDAC1; peptide conc. 4.12E-08 M, listed as des2.2.0_t2): 821518
HDAC1 activity raw data (signal) (HDAC1; peptide conc. 4.57E-09 M, listed as des2.2.0_t1): 820973
HDAC1 activity raw data (signal) (HDAC1; peptide conc. 4.57E-09 M, listed as des2.2.0_t2): 805068
HDAC1 activity raw data (signal) (HDAC1; peptide conc. 5.08E-10 M, listed as des2.2.0_t1): 825935
HDAC1 activity raw data (signal) (HDAC1; peptide conc. 5.08E-10 M, listed as des2.2.0_t2): 859992
